Reference: US8119681B2, “2-[1-phenyl-5-hydroxy or methoxy-4alpha-methyl-hexahydrocyclopenta [ƒ]indazole-5-YL]ethyl phenyl derivatives as glucocorticoid receptor ligands” (Merck Sharp & Dohme Corp., priority 2006, dated 2012)
Where two headings read alike, the source gives them in different places.

Target: T1, human GR (Homo sapiens, UniProt P04150)
T1 sequence (P04150 1-777): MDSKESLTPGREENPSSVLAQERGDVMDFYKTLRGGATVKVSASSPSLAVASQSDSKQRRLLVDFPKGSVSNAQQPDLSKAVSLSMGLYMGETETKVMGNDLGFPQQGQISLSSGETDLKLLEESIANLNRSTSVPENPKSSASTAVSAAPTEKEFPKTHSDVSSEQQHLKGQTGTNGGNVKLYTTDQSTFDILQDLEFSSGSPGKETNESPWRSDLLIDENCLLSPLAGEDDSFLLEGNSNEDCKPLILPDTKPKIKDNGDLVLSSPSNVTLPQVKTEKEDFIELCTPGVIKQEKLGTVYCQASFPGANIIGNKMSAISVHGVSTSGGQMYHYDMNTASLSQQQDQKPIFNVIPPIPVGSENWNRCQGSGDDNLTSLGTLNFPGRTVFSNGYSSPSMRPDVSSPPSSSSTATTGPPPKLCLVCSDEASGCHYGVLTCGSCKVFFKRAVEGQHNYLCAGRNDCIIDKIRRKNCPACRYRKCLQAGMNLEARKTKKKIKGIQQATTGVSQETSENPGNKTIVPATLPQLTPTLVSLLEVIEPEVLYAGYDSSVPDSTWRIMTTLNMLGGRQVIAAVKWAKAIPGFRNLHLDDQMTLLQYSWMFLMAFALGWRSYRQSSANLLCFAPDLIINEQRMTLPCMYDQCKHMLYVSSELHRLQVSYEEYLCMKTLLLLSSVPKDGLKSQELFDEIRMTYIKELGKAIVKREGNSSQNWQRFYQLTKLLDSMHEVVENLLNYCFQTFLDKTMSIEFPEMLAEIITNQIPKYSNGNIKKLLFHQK
Assay: Transrepression Assay (GITAR), TNFα-β-lactamase reporter gene in U937 cells
Assay type: cell-based
Design: U937 cells contain an endogenous glucocorticoid receptor (GR); endogenous in cells; host or cells: U937 cells stably transfected with the TNF-α promoter/β-lactamase reporter only
Settings: for EC50: IP = inflection point; for GITAR > GRAMM % SEP: separation of GITAR Emax over GRAMMER Emax; for Emax: U-937
Summary of the method: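 Reporter readout used CCF2-AM loading for 70–90 min at room temperature after overnight (~18 h, 37 °C) PMA (5 ng/ml final) and LPS (100 ng/ml final) stimulation of compound-treated (30–45 min) TNFα-β-lactamase U937 cells expressing native GR. Activity was normalised to 100 nM dexamethasone repression.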

[1] = Table 1, U937 cells, read-out: Transrepression U937 Cells GITAR IP
[2] = 100 nM dexamethasone = 100% activity, read-out: maximal activity in the transrepression assay
[3] = Table 1, U937 cells, activity repressed by 100 nM dexamethasone = 100%, read-out: Transrepression U937 Cells GITAR Emax (%)

EC50 [1] | GITAR > GRAMM % SEP (Table 1) | Emax [2] | Emax [3] | EC50 (Table 2, U937 cells, read-out: Transactiviation U937 Cells GITAR IP) | GITAR > GRAMM % SEP (Table 2) | Emax (Table 2, U937 cells, activity repressed by 100 nM dexamethasone = 100%, read-out: Transactiviation U937 Cells GITAR Emax (%)) | Structure (SMILES)
0.083 µM | 44% | 5 to 100% | 79% |  |  |  | CC(C)CNC(=O)c1c(F)cccc1CC[C@]1(O)CCC2=Cc3c(cnn3-c3ccc(F)cc3)C[C@@]21C [Example 61, 2-fluoro-6-{2-[(4αS,5R)-1-(4-fluorophenyl)-5-hydroxy-4α-methyl-1,4,4α,5,6,7-hexahydrocyclopenta[f]indazol-5-yl]ethyl}-N-isobutylbenzamide]
0.194 µM | 18% | 5 to 100% | 63% |  |  |  | CC(=O)Cc1ccccc1CC[C@]1(O)CCC2=Cc3c(cnn3-c3ccc(F)cc3)C[C@@]21C [Example 157, 1-(2-{2-[(4αS,5R)-1-(4-fluorophenyl)-5-hydroxy-4α-methyl-1,4,4α,5,6,7-hexahydrocyclopenta[f]indazol-5-yl]ethyl}phenyl)acetone]
0.046 µM | 18% | 5 to 100% | 75% |  |  |  | C[C@]12Cc3cnn(-c4ccc(F)cc4)c3C=C1CC[C@@]2(O)CCc1cccc(F)c1CO [Example 148, (4αS,5R)-5-{2-[3-fluoro-2-(hydroxymethyl)phenyl]ethyl}-1-(4-fluorophenyl)-4α-methyl-1,4,4α,5,6,7-hexahydrocyclopenta[f]indazol-5-ol]
0.193 µM | 23% | 5 to 100% | 79% |  |  |  | CC(=O)Nc1ccccc1CC[C@]1(O)CCC2=Cc3c(cnn3-c3ccc(F)cc3)C[C@@]21C [Example 14, N-(2-{2-[(4αS,5R)-1-(4-fluorophenyl)-5-hydroxy-4α-methyl-1,4,4α,5,6,7-hexahydrocyclopenta[f]indazol-5-yl]ethyl}phenyl)acetamide]
0.03 µM | 40% | 5 to 100% | 77% |  |  |  | C=CCNC(=O)c1c(F)cccc1CC[C@]1(O)CCC2=Cc3c(cnn3-c3ccc(F)cc3)C[C@@]21C [Example 57, N-allyl-2-fluoro-6-{2-[(4αS,5R)-1-(4-fluorophenyl)-5-hydroxy-4α-methyl-1,4,4α,5,6,7-hexahydrocyclopenta[f]indazol-5-yl]ethyl}benzamide]
0.217 µM | 29% | 5 to 100% | 66% |  |  |  | C[C@]12Cc3cnn(-c4ccc(F)cc4)c3C=C1CC[C@@]2(O)CCc1ccccc1CC(N)=O [Example 107, 2-(2-{2-[(4αS,5R)-1-(4-fluorophenyl)-5-hydroxy-4α-methyl-1,4,4α,5,6,7-hexahydrocyclopenta[f]indazol-5-yl]ethyl}phenyl)acetamide]
0.023 µM | 31% | 5 to 100% | 80% |  |  |  | COc1cccc(CC[C@]2(O)CCC3=Cc4c(cnn4-c4ccc(F)cc4)C[C@@]32C)c1C(N)=O [Example 189, 2-{2-[(4αS,5R)-1-(4-fluorophenyl)-5-hydroxy-4α-methyl-1,4,4α,5,6,7-hexahydrocyclopenta[f]indazol-5-yl]ethyl}-6-methoxybenzamide]
0.187 µM | 33% | 5 to 100% | 79% |  |  |  | C[C@]12Cc3cnn(-c4ccc(F)cc4)c3C=C1CC[C@@]2(O)CCc1ccccc1S(C)(=O)=O [Example 19, (4αS,5R)-1-(4-fluorophenyl)-4α-methyl-5-{2-[2-(methylsulfonyl)phenyl]ethyl}-1,4,4α,5,6,7-hexahydrocyclopenta[f]indazol-5-ol]

Further lines, the compound ahead of its results:

Structure (SMILES) | EC50 [1] | GITAR > GRAMM % SEP (Table 1) | Emax [2] | Emax [3] | EC50 (Table 2, U937 cells, read-out: Transactiviation U937 Cells GITAR IP) | GITAR > GRAMM % SEP (Table 2) | Emax (Table 2, U937 cells, activity repressed by 100 nM dexamethasone = 100%, read-out: Transactiviation U937 Cells GITAR Emax (%))
C[C@H](CNC(=O)c1ccccc1CC[C@]1(O)CCC2=Cc3c(cnn3-c3ccc(F)cc3)C[C@@]21C)C(F)(F)F [Example 45, 2-{2-[(4αS,5R)-1-(4-fluorophenyl)-5-hydroxy-4α-methyl-1,4,4α,5,6,7-hexahydrocyclopenta[f]indazol-5-yl]ethyl}-N-[(2R)-3,3,3-trifluoro-2-methylpropyl]benzamide] | 0.22 µM | 52% | 5 to 100% | 70% |  |  | 
C=CCNC(=O)c1ccccc1CC[C@]1(O)CCC2=Cc3c(cnn3-c3ccc(F)cc3)C[C@@]21C [Example 33, N-allyl-2-{2-[(4αS,5R)-1-(4-fluorophenyl)-5-hydroxy-4α-methyl-1,4,4α,5,6,7-hexahydrocyclopenta[f]indazol-5-yl]ethyl}benzamide] | 0.123 µM | 25% | 5 to 100% | 62% |  |  | 
C[C@]12Cc3cnn(-c4ccc(F)cc4)c3C=C1CC[C@@]2(O)CCc1ccccc1C1(NS(=O)(=O)C2CC2)CC1 [Example 91, N-[1-(2-{2-[(4αS,5R)-1-(4-fluorophenyl)-5-hydroxy-4α-methyl-1,4,4α,5,6,7-hexahydrocyclopenta[f]indazol-5-yl]ethyl}phenyl)cyclopropyl]cyclopropanesulfonamide] | 0.231 µM | 26% |  | 72% |  |  | 
C[C@]12Cc3cnn(-c4ccc(F)cc4)c3C=C1CC[C@@]2(O)CCc1ccccc1 [Example 2 WO 2004/075840 A2, reference compound] |  |  |  |  | 0.204 µM | 5% | 78%
CC(C)(C)NC(=O)c1ccccc1CC[C@]1(O)CCC2=Cc3c(cnn3-c3ccc(F)cc3)C[C@@]21C [Example 62, N-(tert-butyl)-2-{2-[(4αS,5R)-1-(4-fluorophenyl)-5-hydroxy-4α-methyl-1,4,4α,5,6,7-hexahydrocyclopenta[f]indazol-5-yl]ethyl}benzamide] | 0.246 µM | 56% | 5 to 100% | 79% |  |  | 
C[C@]12Cc3cnn(-c4ccc(F)cc4)c3C=C1CC[C@@]2(O)CCc1cccc(F)c1CNS(=O)(=O)CC(F)(F)F [Example 86, 2,2,2-trifluoro-N-(2-fluoro-6-{2-[(4αS,5R)-1-(4-fluorophenyl)-5-hydroxy-4α-methyl-1,4,4α,5,6,7-hexahydrocyclopenta[f]indazol-5-yl]ethyl}benzyl)ethanesulfonamide] | 0.246 µM | 53% | 5 to 100% | 66% |  |  | 
CCS(=O)(=O)c1ccccc1CC[C@]1(O)CCC2=Cc3c(cnn3-c3ccc(F)cc3)C[C@@]21C [Example 143, (4αS,5R)-5-{2-[2-(ethylsulfonyl)phenyl]ethyl}-1-(4-fluorophenyl)-4α-methyl-1,4,4α,5,6,7-hexahydrocyclopenta[f]indazol-5-ol] | 0.194 µM | 29% | 5 to 100% | 70% |  |  | 
CCS(=O)(=O)NCc1c(F)cccc1CC[C@]1(O)CCC2=Cc3c(cnn3-c3ccc(F)cc3)C[C@@]21C [Example 84, N-(2-fluoro-6-{2-[(4αS,5R)-1-(4-fluorophenyl)-5-hydroxy-4α-methyl-1,4,4α,5,6,7-hexahydrocyclopenta[f]indazol-5-yl]ethyl}benzyl)ethanesulfonamide] | 0.096 µM | 37% | 5 to 100% | 60% |  |  | 
C[C@]12Cc3cnn(-c4ccc(F)cc4)c3C=C1CC[C@@]2(O)CCc1ccccc1N1CCC1=O [Example 11, 1-(2-{2-[(4αS,5R)-1-(4-fluorophenyl)-5-hydroxy-4α-methyl-1,4,4α,5,6,7-hexahydrocyclopenta[f]indazol-5-yl]ethyl}phenyl)azetidin-2-one] | 0.208 µM | 17% | 5 to 100% | 57% |  |  | 
